According to the supplement of paper PMC10307832:

How the values were obtained:
Assay in all cases: relative viability (nuclei count vs DMSO), 5 days (fraction); higher = more cells survive
R406 + Foretinib = compound: COc1cc(Nc2ncc(F)c(Nc3ccc4c(n3)NC(=O)C(C)(C)O4)n2)cc(OC)c1OC [R406] + COc1cc2c(Oc3ccc(NC(=O)C4(C(=O)Nc5ccc(F)cc5)CC4)cc3F)ccnc2cc1OCCCN1CCOCC1 [Foretinib] (partner 0.25 µM)
Procedure, shortened: (§1)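 Relative viability is defined as nuclei in treated wells over nuclei in vehicle wells. Duplicate plates were run and medians reported. Lung cancer cell lines in 1536-well plates were dosed by pin tool one day after seeding, with one drug or with a fixed anchor-drug dose plus five library-drug doses (not always all listed) in √10 steps, and nuclei were counted after 5 days.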

R406 + Lapatinib = compound: COc1cc(Nc2ncc(F)c(Nc3ccc4c(n3)NC(=O)C(C)(C)O4)n2)cc(OC)c1OC [R406] + CS(=O)(=O)CCNCc1ccc(-c2ccc3ncnc(Nc4ccc(OCc5cccc(F)c5)c(Cl)c4)c3c2)o1 [Lapatinib] (partner 2 µM)
Procedure, shortened: as §1

Daporinad + Dasatinib = compound: O=C(/C=C/c1cccnc1)NCCCCC1CCN(C(=O)c2ccccc2)CC1 [Daporinad] + Cc1nc(Nc2ncc(C(=O)Nc3c(C)cccc3Cl)s2)cc(N2CCN(CCO)CC2)n1 [Dasatinib] (partner 0.075 µM)
Procedure, shortened: as §1

Daporinad + Olaparib = compound: O=C(/C=C/c1cccnc1)NCCCCC1CCN(C(=O)c2ccccc2)CC1 [Daporinad] + O=C(c1cc(Cc2n[nH]c(=O)c3ccccc23)ccc1F)N1CCN(C(=O)C2CC2)CC1 [Olaparib] (partner 8 µM)
Procedure, shortened: as §1

UMC-11 gave a relative viability (R406 + Foretinib; first compound 0.08 µM) of 1.11, a relative viability (R406 + Foretinib; first compound 0.253 µM) of 1.09 and a relative viability (R406 + Foretinib; first compound 0.8 µM) of 0.987. It also gave a relative viability (R406 + Foretinib; first compound 2.53 µM) of 0.789, a relative viability (R406 + Foretinib; first compound 8 µM) of 0.499 and a relative viability (R406 + Lapatinib; first compound 0.08 µM) of 0.952. It also gave a relative viability (R406 + Lapatinib; first compound 0.253 µM) of 1.08, a relative viability (R406 + Lapatinib; first compound 0.8 µM) of 1.06 and a relative viability (R406 + Lapatinib; first compound 2.53 µM) of 0.241. For the same cell line, the relative viability (R406 + Lapatinib; first compound 8 µM) was 0.378, the relative viability (Daporinad + Dasatinib; first compound 0.0005 µM) was 0.486 and the relative viability (Daporinad + Dasatinib; first compound 0.001581 µM) was 0.507. The relative viability (Daporinad + Dasatinib; first compound 0.005 µM) was 0.394, the relative viability (Daporinad + Dasatinib; first compound 0.01581 µM) was 0.505 and the relative viability (Daporinad + Olaparib; first compound 0.0005 µM) was 0.294. For the same cell line, the relative viability (Daporinad + Olaparib; first compound 0.001581 µM) was 0.339, the relative viability (Daporinad + Olaparib; first compound 0.005 µM) was 0.343 and the relative viability (Daporinad + Olaparib; first compound 0.01581 µM) was 0.309.
